Test results published in patent US20220218835A1, “COMBINATION THERAPY” (priority 2019, published 2022).

Tested on: MM1S tumours
Assay: MM1S xenograft mouse model
Format: in vivo, CB17 SCID mice
Procedure: A CB17 SCID mice (n=7 each group) with palpable MM1S tumour implants were randomized and treated with control vehicle, a single dose of M2 (0.4 mg/kg), six doses of btz (0.4 mg/kg), or combination of M2 and btz (M2+btz) for 2 weeks. […] D Tumour tissue sections from each group were immunohistochemically analyzed for Ki-67 (original magnification, ×400). […] Tumours were removed at the same treatment day from representative mice.
CB-17 SCID-mice were subcutaneously inoculated with 5.0×106 MM.1S cells in 100 μl of serum-free RPMI 1640 medium. When tumours were measurable approximately 3 weeks after MM-cell injection, mice (8 mice/group) were randomized and treated with vehicle alone, M2, btz, or M2 with btz. Tumour size was measured every third day in 2 dimensions using calipers, and tumour volume was calculated using the following formula: V=0.5a×b2, where “a” and “b” are the long and short diameter of the tumour, respectively. Animals were sacrificed when their tumours reached 2 cm^3.
Following 3d-treatment, tumour from each group was harvested and cell lysates were made for immunoblotting. […] Immunohistochemical images were taken on Zeiss Inverted Fluorescence Microscope for Ki67. […]
In vivo efficacy of sub-optimal doses M2 with btz was next evaluated in the MM1S xenograft mouse model. […]

Q: How did the MM1S tumour growth (24d after treatment, single dose M2, 6 doses btz (0.4 mg/kg)) turn out when `CC(C)C[C@H](NC(=O)[C@H](Cc1ccccc1)NC(=O)c1cnccn1)B(O)O` [btz, Bortezomib] was run?
A: significantly delays

Q: And the median overall survival (Kaplan-Meier, follow-up 177 d)?
A: 35 days
